This assay deals with T1, myeloperoxidase (MPO) (Homo sapiens, UniProt P05164).
T1 sequence (P05164 49-745): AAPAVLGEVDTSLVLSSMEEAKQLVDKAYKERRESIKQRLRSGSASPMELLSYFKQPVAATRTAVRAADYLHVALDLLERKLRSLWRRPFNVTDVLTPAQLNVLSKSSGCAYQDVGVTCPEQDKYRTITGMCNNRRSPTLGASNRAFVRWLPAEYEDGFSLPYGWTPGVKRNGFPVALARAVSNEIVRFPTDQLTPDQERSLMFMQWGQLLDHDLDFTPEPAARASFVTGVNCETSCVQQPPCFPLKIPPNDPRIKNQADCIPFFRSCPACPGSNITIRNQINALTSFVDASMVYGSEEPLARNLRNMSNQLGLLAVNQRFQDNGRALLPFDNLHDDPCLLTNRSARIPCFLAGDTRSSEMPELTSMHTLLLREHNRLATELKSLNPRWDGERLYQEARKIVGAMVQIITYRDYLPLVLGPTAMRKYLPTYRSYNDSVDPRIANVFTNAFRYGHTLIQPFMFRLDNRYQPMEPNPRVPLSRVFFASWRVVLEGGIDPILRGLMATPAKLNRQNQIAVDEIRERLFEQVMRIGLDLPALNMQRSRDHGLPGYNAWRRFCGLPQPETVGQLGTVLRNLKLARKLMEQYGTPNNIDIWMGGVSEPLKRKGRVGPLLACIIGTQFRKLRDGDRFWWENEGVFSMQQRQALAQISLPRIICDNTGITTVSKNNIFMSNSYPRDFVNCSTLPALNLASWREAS
Put plainly: MPO peroxidation assay (Amplex Red assay). The note with it: MPO peroxidation, potency range class; read-out: Amplex Red IC50. The assay is classed as biochemical. In a few lines: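 Peroxidase turnover of Amplex Red to fluorescent resorufin (Ex 535/Em 590 nm) was followed for 15 min in 100 mM KPi, pH 7.4, after 10 min room-temperature preincubation of compound with 200 pM enzyme plus 40 nM H2O2. The substrate mix contained 200 μM Amplex Red and 10 mM H2O2. IC50s came from linear-phase rates (180–540 s) fitted with a Hill equation.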
As a reminder, the IC50 is the point on the concentration scale where inhibition reaches its midpoint. Regarding `CCN(CCO)C(=O)c1ccc(Cl)c(COc2cc(N)nc3[nH]nnc23)c1` [Example 184, 3-((5-amino-3H-[1,2,3]triazolo [4,5-b]pyridin-7-yloxy)methyl)-4-chloro-N-ethyl-N-(2-hydroxyethyl) benzamide], the IC50 is 101 to 999 nM.

For `CN(C)C(=O)c1ccc(Cl)c(COc2cc(N)nc3[nH]nnc23)c1` [Example 185, 3-((5-amino-3H-[1,2,3]triazolo [4,5-b]pyridin-7-yloxy)methyl)-4-chloro-N,N-dimethylbenzamide], the IC50 was in the range of 101 to 999 nM.

On to `CNC(=O)CNC(=O)c1ccc(Cl)c(COc2cc(N)nc3[nH]nnc23)c1` [Example 187, 3-((5-amino-3H-[1,2,3]triazolo [4,5-b]pyridin-7-yloxy)methyl)-4-chloro-N-(2-(methylamino)-2-oxoethyl)benzamide], for which the IC50 is 101 to 999 nM.

Take `Nc1cc(OCc2cc(C(=O)NC3CC3)ccc2Cl)c2nn[nH]c2n1` [Example 188, 3-((5-amino-3H-[1,2,3]triazolo [4,5-b]pyridin-7-yloxy)methyl)-4-chloro-N-cyclopropylbenzamide]: the IC50 was 1 to 100 nM.

Take `CN(CC(N)=O)C(=O)c1ccc(Cl)c(COc2cc(N)nc3[nH]nnc23)c1` [Example 189, N-(2-amino-2-oxoethyl)-3-((5-amino-3H-[1,2,3]triazolo[4,5-b]pyridin-7-yloxy)methyl)-4-chloro-N-methylbenzamide]: the IC50 fell in the range of 101 to 999 nM.

`Nc1cc(OCc2cc(C(=O)NCC(F)(F)F)ccc2Cl)c2nn[nH]c2n1` [Example 190, 3-((5-amino-3H-[1,2,3]triazolo [4,5-b]pyridin-7-yloxy)methyl)-4-chloro-N-(2,2,2-trifluoroethyl) benzamide]: the IC50 lay in the range of 1 to 100 nM.

As for `CC(O)CNC(=O)c1ccc(Cl)c(COc2cc(N)nc3[nH]nnc23)c1` (centres unmarked) [Example 191, 3-((5-amino-3H-[1,2,3]triazolo [4,5-b]pyridin-7-yloxy)methyl)-4-chloro-N-(2-hydroxypropyl) benzamide], the IC50 lay within 1 to 100 nM.

Take `Nc1cc(OCc2cc(C(=O)NCc3ccc[nH]c3=O)ccc2Cl)c2nn[nH]c2n1` [Example 192, 3-((5-amino-3H-[1,2,3]triazolo [4,5-b]pyridin-7-yloxy)methyl)-4-chloro-N-((2-oxo-1,2-dihydropyridin-3-yl)methyl) benzamide]: the IC50 fell in the range of 1 to 100 nM.

For `Nc1cc(OCc2cc(C(=O)NC3CCS(=O)(=O)C3)ccc2Cl)c2nn[nH]c2n1` (centres unmarked) [Example 193, 3-((5-amino-3H-[1,2,3]triazolo [4,5-b]pyridin-7-yloxy)methyl)-4-chloro-N-(1,1-dioxidotetrahydrothien-3-yl)benzamide], the half-inhibitory concentration (IC50) is 101 to 999 nM.

With `COC(=O)c1ccc(COc2cc(N)nc3[nH]nnc23)c(Cl)c1` [Example 194, Methyl 4-((5-amino-3H-[1,2,3]triazolo[4,5-b]pyridin-7-yloxy)methyl)-3-chlorobenzoate], the IC50 is 1 to 100 nM.

`Nc1cc(OCc2ccc(C(=O)NCc3ccccc3)cc2Cl)c2nn[nH]c2n1` [Example 196, 4-((5-amino-3H-[1,2,3]triazolo[4,5-b]pyridin-7-yloxy)methyl)-N-benzyl-3-chlorobenzamide]: the IC50 lay in the range of 1 to 100 nM.

On to `Nc1cc(OCc2ccc(C(=O)NC3CC3)cc2Cl)c2nn[nH]c2n1` [Example 197, 4-((5-amino-3H-[1,2,3]triazolo[4,5-b]pyridin-7-yloxy)methyl)-3-chloro-N-cyclopropylbenzamide], for which the IC50 fell in the range of 101 to 999 nM.

Turning to `Nc1cc(OCc2ccc(C(=O)NCC3CCCCC3)cc2Cl)c2nn[nH]c2n1` [Example 198, 4-((5-amino-3H-[1,2,3]triazolo[4,5-b]pyridin-7-yloxy)methyl)-3-chloro-N-(cyclohexylmethyl)benzamide], the IC50 was 101 to 999 nM.

Take `Nc1cc(OCc2ccc(C(=O)N3CCC[C@H]3CO)cc2Cl)c2nn[nH]c2n1` [Example 199, (S)-(4-((5-amino-3H-[1,2,3]triazolo [4,5-b]pyridin-7-yloxy)methyl)-3-chlorophenyl)(2-(hydroxymethyl)pyrrolidin-1-yl)methanone]: the IC50 lay within 101 to 999 nM.

As for `CC(NC(=O)c1ccc(COc2cc(N)nc3[nH]nnc23)c(Cl)c1)c1ccccc1` (centres unmarked) [Example 201, 4-((5-amino-3H-[1,2,3]triazolo[4,5-b]pyridin-7-yloxy)methyl)-3-chloro-N-(1-phenylethyl)benzamide], the IC50 lay in the range of 1 to 100 nM.

`CN(C)CCNC(=O)c1ccc(COc2cc(N)nc3[nH]nnc23)c(Cl)c1` [Example 202, 4-((5-amino-3H-[1,2,3]triazolo[4,5-b]pyridin-7-yloxy)methyl)-3-chloro-N-(2-(dimethylamino)ethyl) benzamide]: the IC50 fell in the range of 1 to 100 nM.

Turning to `CN(C(=O)c1ccc(COc2cc(N)nc3[nH]nnc23)c(Cl)c1)c1ccccc1` [Example 203, 4-((5-amino-3H-[1,2,3]triazolo[4,5-b]pyridin-7-yloxy)methyl)-3-chloro-N-methyl-N-phenylbenzamide], the IC50 fell in the range of 1 to 100 nM.

With `CN(Cc1ccccc1)C(=O)c1ccc(COc2cc(N)nc3[nH]nnc23)c(Cl)c1` [Example 204, 4-((5-amino-3H-[1,2,3]triazolo[4,5-b]pyridin-7-yloxy)methyl)-N-benzyl-3-chloro-N-methylbenzamide], the IC50 is 1 to 100 nM.

`Nc1cc(OCc2ccc(C(=O)NC3CCC3)cc2Cl)c2nn[nH]c2n1` [Example 205, 4-((5-amino-3H-[1,2,3]triazolo[4,5-b]pyridin-7-yloxy)methyl)-3-chloro-N-cyclobutylbenzamide]: the IC50 lay within 1 to 100 nM.

With `Nc1cc(OCc2ccc(C(=O)N3CCCCC3c3ccccc3)cc2Cl)c2nn[nH]c2n1` (centres unmarked) [Example 206], the half-inhibitory concentration (IC50) lay within 101 to 999 nM.

Consider `Cc1cc(CNC(=O)c2ccc(COc3cc(N)nc4[nH]nnc34)c(Cl)c2)n(C)n1` [Example 207, 4-((5-amino-3H-[1,2,3]triazolo[4,5-b]pyridin-7-yloxy)methyl)-3-chloro-N-((1,3-dimethyl-1H-pyrazol-5-yl)methyl)benzamide], for which the IC50 was in the range of 1 to 100 nM.

`Nc1cc(OCc2ccc(C(=O)N3CCCC(Oc4ccccc4)C3)cc2Cl)c2nn[nH]c2n1` (centres unmarked) [Example 209]: the IC50 was in the range of 1 to 100 nM.

In the case of `Nc1cc(OCc2ccc(C(=O)N3CCC(CO)C3)cc2Cl)c2nn[nH]c2n1` (centres unmarked) [Example 210], the IC50 fell in the range of 101 to 999 nM.

In the case of `CC(=O)N[C@H]1CCN(C(=O)c2ccc(COc3cc(N)nc4[nH]nnc34)c(Cl)c2)C1` [Example 212, (S)-N-(1-(4-((5-amino-3H-[1,2,3]triazolo[4,5-b]pyridin-7-yloxy)methyl)-3-chlorobenzoyl)pyrrolidin-3-yl)acetamide], the IC50 fell in the range of 101 to 999 nM.

On to `Nc1cc(OCc2ccc(C(=O)Nc3ccccc3)cc2Cl)c2nn[nH]c2n1` [Example 213, 4-((5-amino-3H-[1,2,3]triazolo[4,5-b]pyridin-7-yloxy)methyl)-3-chloro-N-phenylbenzamide], for which the IC50 is 1 to 100 nM.

On to `Nc1cc(OCc2ccc(C(=O)NCc3ccccc3Cl)cc2Cl)c2nn[nH]c2n1` [Example 214, 4-((5-amino-3H-[1,2,3]triazolo[4,5-b]pyridin-7-yloxy)methyl)-3-chloro-N-(2-chlorobenzyl)benzamide], for which the IC50 is 1 to 100 nM.

With `COc1ccccc1CNC(=O)c1ccc(COc2cc(N)nc3[nH]nnc23)c(Cl)c1` [Example 215, 4-((5-amino-3H-[1,2,3]triazolo[4,5-b]pyridin-7-yloxy)methyl)-3-chloro-N-(2-methoxybenzyl)benzamide], the IC50 lay in the range of 1 to 100 nM.

In the case of `CNC(=O)CNC(=O)c1ccc(COc2cc(N)nc3[nH]nnc23)c(Cl)c1` [Example 218, 4-((5-amino-3H-[1,2,3]triazolo[4,5-b]pyridin-7-yloxy)methyl)-3-chloro-N-(2-(methylamino)-2-oxoethyl) benzamide], the IC50 lay in the range of 101 to 999 nM.

Take `Nc1cc(OCc2ccc(C(=O)NCc3cccnc3)cc2Cl)c2nn[nH]c2n1` [Example 219, 4-((5-amino-3H-[1,2,3]triazolo[4,5-b]pyridin-7-yloxy)methyl)-3-chloro-N-(pyridin-3-ylmethyl)benzamide]: the IC50 lay in the range of 1 to 100 nM.

Turning to `NC(=O)C1CCN(C(=O)c2ccc(COc3cc(N)nc4[nH]nnc34)c(Cl)c2)CC1` [Example 220, 1-(4-((5-amino-3H-[1,2,3]triazolo [4,5-b]pyridin-7-yloxy)methyl)-3-chlorobenzoyl)piperidine-4-carboxamide], the IC50 was in the range of 101 to 999 nM.

For the molecule `Nc1cc(OCc2ccc(C(=O)NC3CCCCC3)cc2Cl)c2nn[nH]c2n1` [Example 221, 4-((5-amino-3H-[1,2,3]triazolo[4,5-b]pyridin-7-yloxy)methyl)-3-chloro-N-cyclohexylbenzamide], the concentration for half-maximal inhibition (IC50) is 1 to 100 nM.

For `CN(C)CCN(C)C(=O)c1ccc(COc2cc(N)nc3[nH]nnc23)c(Cl)c1` [Example 222, 4-((5-amino-3H-[1,2,3]triazolo[4,5-b]pyridin-7-yloxy)methyl)-3-chloro-N-(2-(dimethylamino)ethyl)-N-methylbenzamide], the IC50 is 101 to 999 nM.

Source of the values: patent publication US10316035B2, “Triazolopyridine inhibitors of myeloperoxidase” (BRISTOL-MYERS SQUIBB COMPANY, priority 2015, dated 2019).
